Experimental data from patent EP3138565A1, “METHOD FOR TREATING A TUMOUR DISEASE AND METHOD FOR SELECTIVELY INHIBITING TUMOUR CELL GROWTH USING A QUINOXALINE-1,4-DIOXIDE DERIVATIVE” (OOO "A-Laboratory", priority 2014, dated 2015).

Experiments:
HCT116 = experiment: MTT test, antiproliferative activity; format: cell-based, human; settings: for IC50: HCT-116, HCT116 human solid tumor cells, MTT test
Description: (§1) Comparative study of cytotoxicity of 6,7-difluoro-3-phenyl-2-cyanoquinoxaline 1,4-dioxide (compound 7 obtained according to a method described in the Example 1) and the previously known 6,7-nonsubstituted analogue 6 (obtained earlier by a method described by [Hu Y. etal. Molecules 2012, 17, 9683]) was performed in in vitro tests on cells of human solid tumors, as well as normal human embryo lung fibroblasts (HELF) to control selectivity. IC50 values were determined by the MTT test according to a protocol described in the literature [Mossman T.J. Immunol. Methods, 1983, 65, 55]. Table 1. Antiproliferative activity (IC50, µM) of quinoxaline 1,4-dioxides 6 and 7 with respect to human solid tumor cells and non-tumor human embryo lung fibroblasts (HELF)

[1] = tested on: normal human embryo lung fibroblasts (HELF); experiment: MTT test, cytotoxicity on non-tumor cells (selectivity control); format: cell-based; settings: HELF; non-tumor human embryo lung fibroblasts, MTT test; read-out: IC50, µM HEFL
Description: as §1

K562/4 = experiment: Antiproliferative activity on multidrug-resistant subline expressing p-glycoprotein; format: cell-based; settings: for IC50: Homo sapiens, K562/4 subline with multidrug resistance caused by p-gp expression; for RI, resistance index: RI = IC50(K562/4)/IC50(K562)
Description: (§2) Comparative study of cytotoxicity of 6,7-difluoro-3-phenyl-2-cyanoquinoxaline 1,4-dioxide (compound of formula 7), which is the subject if the present invention, was performed also on a culture of tumor […] leukemia K562 cells and its resistant subline K562/4 expressing p-glycoprotein. Expression of such ATP-dependent transporters on cell surface is one of the most common mechanisms of the multidrug resistance development in tumors [Shtil A.A., Grinchuk T.M., et. al. Int. J. Oncol., 2000, 17, 387]. Data of these studies, including the IC50 values of reference compounds, the previously described quinoxaline 1,4-dioxide of formula 6, and doxorubicin, as well as the resistance index value (RI is the ratio between the IC50 values of the K562/4 subline and IC50 of the K562 line) are presented in Table 2.

MSF7 = experiment: MTT test, antiproliferative activity; format: cell-based; settings: MSF7 human solid tumor cells
Description: as §1

K562 leukemic cells = experiment: Antiproliferative activity on leukemia cells; format: cell-based; settings: Homo sapiens
Description: as §2

animal tumor models = experiment: Antitumor effect on animal tumor models; format: in vivo; settings: no data given
[2] = tested on: human tumor cells of various genesis; experiment: Apoptosis induction in tumor cells under normoxia; format: cell-based; settings: submicromolar concentrations, all studied types of human tumor cells
[3] = MTT test, cytotoxicity on non-tumor cells (selectivity control); format: cell-based; settings: tumor cells of different genesis vs non-tumor human fibroblasts; read-out: cytotoxicity with respect to tumor cells higher than against the non-tumor human fibroblast cells (selectivity)
Description: as §1

| SMILES | IC50 (HCT116) [µM] | IC50 [1] [µM] | IC50 (K562/4) [µM] | RI, resistance index (K562/4) | IC50 (MSF7) [µM] | IC50 (K562 leukemic cells) [µM] | growth-inhibiting concentrations relative to the closest analogue of formula 6 (HCT116; all tested tumor cell lines) | antitumor effect (animal tumor models) | apoptosis induction [2] | selectivity ratio [3] | activity toward K562/4 cells surpassing analogue of formula 6 (K562/4; K562/4, versus closest analogue of formula 6) [fold] | activity toward K562/4 cells surpassing doxorubicin (K562/4; K562/4, versus reference preparation doxorubicin) [fold] | resistance index (RI) lower than doxorubicin (K562/4; RI of compound versus RI of doxorubicin) [fold] |
| --- | --- | --- | --- | --- | --- | --- | --- | --- | --- | --- | --- | --- | --- |
| N#Cc1c(-c2ccccc2)[n+]([O-])c2ccccc2[n+]1[O-] [Compound 6, reference compound] | 8.4 ± 0.8 | 25.2 ± 5.1 | 33 ± 4 | 6.3 | 15.5 ± 0.98 | 5.2 ± 0.78 | – | – | – | – | – | – | – |
| N#Cc1c(-c2ccccc2)[n+]([O-])c2cc(F)c(F)cc2[n+]1[O-] [Compound 7, 6,7-difluoro-3-phenyl-2-cyanoquinoxaline 1,4-dioxide] | 0.6 ± 0.03 | 44 ± 1.9 | 0.3 ± 0.05 | 2.0 | 0.1 ± 0.02 | 0.15 ± 0.02 | two orders of magnitude lower | reliable antitumor effect | induced apoptosis | 200 to 300 | 100 | ~50 | ~50 |
| COc1cccc2c1C(=O)c1c(O)c3c(c(O)c1C2=O)C[C@@](O)(C(=O)CO)C[C@@H]3O[C@H]1C[C@H](N)[C@H](O)[C@H](C)O1 [Doxorubicin, reference compound] | – | – | 18.4 ± 2.2 | 102.2 | – | 0.18 ± 0.03 | – | – | – | – | – | – | – |
